Experimental data as given in PubChem BioAssay (NCI).
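How tested: cells in 96-well plates exposed to compound for 48 hours at five concentrations. TGI is the concentration that stops growth completely.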

Tests used:
Test in all cases: growth of human tumour cells (NCI), 48 h
786-0 renal = tested on: 786-0 renal
HOP-92 NSCLC = tested on: HOP-92 NSCLC
SF-268 CNS = tested on: SF-268 CNS
SN12C renal = tested on: SN12C renal
SK-MEL-28 melanoma = tested on: SK-MEL-28 melanoma
HCT-116 colon = tested on: HCT-116 colon
MOLT-4 leukemia = tested on: MOLT-4 leukemia
MALME-3M melanoma = tested on: MALME-3M melanoma
SK-MEL-5 melanoma = tested on: SK-MEL-5 melanoma
U251 CNS = tested on: U251 CNS
MDA-MB-231 breast = tested on: MDA-MB-231 breast
IGROV1 ovarian = tested on: IGROV1 ovarian
SK-OV-3 ovarian = tested on: SK-OV-3 ovarian

| Structure (SMILES) | TGI (786-0 renal) | TGI (HOP-92 NSCLC) | TGI (SF-268 CNS) | TGI (SN12C renal) | TGI (SK-MEL-28 melanoma) | TGI (HCT-116 colon) | TGI (MOLT-4 leukemia) | TGI (MALME-3M melanoma) | TGI (SK-MEL-5 melanoma) | TGI (U251 CNS) | TGI (MDA-MB-231 breast) | TGI (IGROV1 ovarian) | TGI (SK-OV-3 ovarian) |
| --- | --- | --- | --- | --- | --- | --- | --- | --- | --- | --- | --- | --- | --- |
| S=C(N/N=C(\c1ccccc1)c1ccccn1)NC1CCCCC1 | > 100 µM | > 100 µM | > 100 µM | > 100 µM | > 100 µM | > 100 µM | > 100 µM | > 100 µM | > 100 µM | > 100 µM | > 100 µM | > 100 µM | > 100 µM |
| O=[N+]([O-])C(/C=C(\Cl)[N+](=O)[O-])=C1Nc2ccccc2N1 | > 100 µM | 87 µM | > 100 µM | > 100 µM | > 100 µM | > 100 µM | > 100 µM | > 100 µM | > 100 µM | > 100 µM | > 100 µM | > 100 µM | > 100 µM |
| NC(N)=NS(=O)(=O)c1ccc(N/N=C2/CCOC2=O)cc1 | > 100 µM | > 100 µM | > 100 µM | > 100 µM | > 100 µM | > 100 µM | > 100 µM | > 100 µM | > 100 µM | > 100 µM | > 100 µM | > 100 µM | > 100 µM |
| CCOP(=O)(OCC)/C(C#N)=C/c1cccn1C(C)C | > 100 µM | > 100 µM | > 100 µM | > 100 µM | > 100 µM | > 100 µM | > 100 µM | > 100 µM | > 100 µM | > 100 µM | > 100 µM | > 100 µM | > 100 µM |
| CCCCCCCCCCCCOP(=O)(O)OP(=O)(O)OCC1OC(n2ccc(N)nc2=O)CC1O (centres undefined) | > 100 µM | > 100 µM | > 100 µM | > 100 µM | > 100 µM | > 100 µM | > 100 µM | > 100 µM | > 100 µM | > 100 µM | > 100 µM | > 100 µM | > 100 µM |
| CC(Oc1ccccc1Cl)C(=O)NN1C(=O)CC(=O)N(c2ccccc2)C1=S (centres undefined) | > 100 µM | 68.8 µM | > 100 µM | > 100 µM | > 100 µM | > 100 µM | > 100 µM | > 100 µM | > 100 µM | > 100 µM | > 100 µM | > 100 µM | > 100 µM |
| Cc1cccc(Br)[n+]1[O-] | > 100 µM | > 100 µM | > 100 µM | > 100 µM | > 100 µM | > 100 µM | > 100 µM | > 100 µM | > 100 µM | > 100 µM | > 100 µM | > 100 µM | > 100 µM |
| CSc1nc(C)cc(Nc2ccc(O)c(CN3CCOCC3)c2)n1 | > 100 µM | > 100 µM | > 100 µM | > 100 µM | > 100 µM | > 100 µM | > 100 µM | > 100 µM | > 100 µM | > 100 µM | > 100 µM | > 100 µM | > 100 µM |
